Test results taken from the NIST ThermoML archive (doi:10.1016/j.jct.2013.01.010).
± gives the expanded uncertainty stated by the source.

Details: 101.33 kPa, Liquid; for speed of sound: Sing-around technique in a fixed-path interferometer; for mass density: Vibrating tube method

SMILES	speed of sound (293.15 K) [m/s]	mass density (293.15 K) [kg/m3]	speed of sound (298.15 K) [m/s]	mass density (298.15 K) [kg/m3]	speed of sound (303.15 K) [m/s]	mass density (303.15 K) [kg/m3]	speed of sound (308.15 K) [m/s]	mass density (308.15 K) [kg/m3]
CCn1cc[n+](C)c1.F[B-](F)(F)F [1-ethyl-3-methylimidazolium tetrafluoroborate]	1631 ± 2.4	1283.89 ± 1.5	1619.4 ± 2.4	1279.91 ± 1.5	1607.6 ± 2.4	1276.26 ± 1.5	1596.3 ± 2.4	1272.07 ± 1.4
CC(C)=O [acetone]	1186 ± 1.2	789.987 ± 0.15	1163.8 ± 1.2	784.405 ± 0.15	1141.4 ± 1.2	778.871 ± 0.15	1119.1 ± 1.2	773.066 ± 0.15
C[S+](C)[O-] [dimethyl sulfoxide]	1503.2 ± 1.2	1100.43 ± 0.12	1486.3 ± 1.2	1095.42 ± 0.12	1469.2 ± 1.2	1090.41 ± 0.12	1452.7 ± 1.2	1085.39 ± 0.12
